# Assay results reported in PMC10648349, “Aromatic Diboronic Acids as Effective KPC/AmpC Inhibitors” (Molecules, 2023).
# Columns and labels:
# [1] = MTT-based viability assay; format: cell-based; settings: human, MRC-5 human fibroblasts, 72 h, read-out: Viability of MRC-5 cells (% of viable cells ± SD)
# Method in brief: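 Percent viable cells relative to control, measured in triplicate by MTT read-out at 570 nm. Cells: MRC-5 human fibroblasts cultured at 37 °C, 5% CO2 in MEME plus 10% FBS.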
# [2] = test system: C. parapsilosis ATCC 22019; experiment: antifungal activity (disc-diffusion, MIC, MFC); format: cell-based, Candida parapsilosis; settings: Lodderomyces parapsilosis, ATCC22019; for MIC: fluconazole by Etest; for zone of inhibition at 0.4 mg/disc: 0.4 mg per disc, 9 mm disc (fluconazole 0.025 mg, 6 mm disc), - no zone, read-out: Diameter of inhibition zone
# Method in brief: (§1)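 First, discs bearing 0.4 mg of compound in DMSO were tested for growth inhibition. Next, MIC was determined, followed by MBC for bacteria or MFC for yeasts, all per EUCAST and CLSI.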
# [3] = test system: B. subtilis ATCC 6633; experiment: direct antimicrobial activity (disc-diffusion); format: cell-based; settings: Bacillus subtilis, ATCC6633; 0.4 mg per disc, 9 mm disc (linezolid 0.03 mg, 6 mm disc); - no zone; read-out: Diameter of inhibition zone
# Method in brief: as §1
# [4] = test system: P. aeruginosa MUW 700 cAmpC-positive; experiment: combination disc test CDT-AmpC; format: cell-based; settings: Pseudomonas aeruginosa, read-out: Diameter of inhibition zone, CAZ-30 disc with agent; for zone of inhibition at 300 µg/disc: agent 0.3 mg per disc; for zone of inhibition at 100 µg/disc: agent 0.1 mg per disc
# [5] = test system: C. albicans ATCC 90028; experiment: antifungal activity (disc-diffusion, MIC, MFC); format: cell-based; settings: Candida albicans, ATCC90028; for MIC: fluconazole by Etest; for zone of inhibition at 0.4 mg/disc: 0.4 mg per disc, 9 mm disc (fluconazole 0.025 mg, 6 mm disc), - no zone, read-out: Diameter of inhibition zone
# Method in brief: as §1
# [6] = test system: C. tropicalis IBA 171; experiment: antifungal activity (disc-diffusion, MIC, MFC); format: cell-based; settings: Candida tropicalis, IBA171; for MIC: fluconazole by Etest; for zone of inhibition at 0.4 mg/disc: 0.4 mg per disc, 9 mm disc (fluconazole 0.025 mg, 6 mm disc), - no zone, read-out: Diameter of inhibition zone
# Method in brief: as §1
# [7] = test system: C. tropicalis ATCC 750; experiment: antifungal activity (disc-diffusion, MIC, MFC); format: cell-based; settings: Candida tropicalis, ATCC750; for MIC: fluconazole by Etest; for zone of inhibition at 0.4 mg/disc: 0.4 mg per disc, 9 mm disc (fluconazole 0.025 mg, 6 mm disc), - no zone, read-out: Diameter of inhibition zone
# Method in brief: as §1
# [8] = test system: S. cerevisiae ATCC 9763; experiment: antifungal activity (disc-diffusion, MIC, MFC); format: cell-based; settings: Saccharomyces cerevisiae, ATCC9763; for MIC: fluconazole by Etest; for zone of inhibition at 0.4 mg/disc: 0.4 mg per disc, 9 mm disc (fluconazole 0.025 mg, 6 mm disc), - no zone, read-out: Diameter of inhibition zone
# Method in brief: as §1
# [9] = test system: E. coli 77 CMY-2-positive; experiment: combination disc test CDT-AmpC; format: cell-based; settings: Escherichia coli, read-out: Diameter of inhibition zone, CAZ-30 disc with agent; for zone of inhibition at 300 µg/disc: agent 0.3 mg per disc; for zone of inhibition at 100 µg/disc: agent 0.1 mg per disc
# [10] = test system: K. pneumoniae ATCC BAA 1705 KPC-2-positive; experiment: combination disc test CDT-KPC; format: cell-based; settings: Klebsiella pneumoniae, BAA1705, read-out: Diameter of inhibition zone, MEM-10 disc with agent; for zone of inhibition at 300 µg/disc: agent 0.3 mg per disc; for zone of inhibition at 100 µg/disc: agent 0.1 mg per disc
# [11] = test system: C. guilliermondii IBA 155; experiment: antifungal activity (disc-diffusion, MIC, MFC); format: cell-based, Candida guilliermondii; settings: Meyerozyma guilliermondii, IBA155; for MIC: fluconazole by Etest; for zone of inhibition at 0.4 mg/disc: 0.4 mg per disc, 9 mm disc (fluconazole 0.025 mg, 6 mm disc), - no zone, read-out: Diameter of inhibition zone
# Method in brief: as §1
# [12] = test system: S. epidermidis ATCC 12228; experiment: direct antimicrobial activity (disc-diffusion, MIC, MBC); format: cell-based; settings: Staphylococcus epidermidis, ATCC12228; for zone of inhibition at 0.4 mg/disc: 0.4 mg per disc, 9 mm disc (linezolid 0.03 mg, 6 mm disc), - no zone, read-out: Diameter of inhibition zone
# Method in brief: as §1
# [13] = test system: S. aureus ATCC 43300 MRSA; experiment: as above; format: cell-based; settings: Staphylococcus aureus; for zone of inhibition at 0.4 mg/disc: 0.4 mg per disc, 9 mm disc (linezolid 0.03 mg, 6 mm disc), - no zone, read-out: Diameter of inhibition zone
# Method in brief: as §1
# [14] = test system: E. faecalis ATCC 29212; experiment: as above; format: cell-based; settings: Enterococcus faecalis, ATCC29212; for zone of inhibition at 0.4 mg/disc: 0.4 mg per disc, 9 mm disc (linezolid 0.03 mg, 6 mm disc), - no zone, read-out: Diameter of inhibition zone
# Method in brief: as §1
# [15] = test system: S. aureus ATCC 6538P; experiment: as above; format: cell-based; settings: Staphylococcus aureus, ATCC6538P; for zone of inhibition at 0.4 mg/disc: 0.4 mg per disc, 9 mm disc (linezolid 0.03 mg, 6 mm disc), - no zone, read-out: Diameter of inhibition zone
# Method in brief: as §1
# [16] = test system: E. faecium ATCC 6057; experiment: as above; format: cell-based; settings: Enterococcus faecium, ATCC6057; for zone of inhibition at 0.4 mg/disc: 0.4 mg per disc, 9 mm disc (linezolid 0.03 mg, 6 mm disc), - no zone, read-out: Diameter of inhibition zone
# Method in brief: as §1
# [17] = test system: E. coli 77 CMY-2-positive; experiment: checkerboard microdilution, antibiotic plus tested agent; format: cell-based, Escherichia coli
# Method in brief: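 Read-out is the antibiotic MIC with agent present, plus FICI = combined/alone MIC ratios summed for both partners. Meropenem pairs served for carbapenemase strains and ceftazidime pairs for the AmpC strain. Agent or PBA was tested at 4–16 mg/L.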
# [18] = test system: K. pneumoniae ATCC 700603 ESBL-positive; experiment: combination disc test CDT-ESBL; format: cell-based; settings: Klebsiella pneumoniae, ATCC700603, read-out: Diameter of inhibition zone, CAZ-30 disc with agent; for zone of inhibition at 300 µg/disc: agent 0.3 mg per disc; for zone of inhibition at 100 µg/disc: agent 0.1 mg per disc
Compound,"viability at 72 h, 12.5 mg/L [1]","viability at 72 h, 25 mg/L [1]","viability at 72 h, 50 mg/L [1]",MIC [2],zone of inhibition at 0.4 mg/disc [3],zone of inhibition at 300 µg/disc [4],MIC [5],MIC [6],MIC [7],MIC [8],zone of inhibition at 300 µg/disc [9],MIC [11],MIC [12],zone of inhibition at 0.4 mg/disc [12],MIC [13],MIC [14],MIC [15],MIC [16],zone of inhibition at 0.4 mg/disc [13],zone of inhibition at 0.4 mg/disc [15],further results
"OB(O)c1ccsc1B(O)O [5a, thiophene-2,3-diboronic acid]",88.6 ± 9.2%,87.1 ± 1.6%,79.2 ± 5.1%,> 400 µg/mL,15 mm,22 mm,400 µg/mL,> 400 µg/mL,> 400 µg/mL,> 400 µg/mL,20 mm,> 400 µg/mL,400 µg/mL,13 mm,400 µg/mL,100 µg/mL,100 µg/mL,> 400 µg/mL,–,–,zone of inhibition at 300 µg/disc [10]: 15 mm; Average FICI with ceftazidime [17]: 0.43; The lowest FICI with ceftazidime [17]: 0.27; zone of inhibition at 300 µg/disc [18]: 16 mm
OB(O)c1cc(F)c(B(O)O)c(F)c1F [1f],97.4 ± 2.2%,89.9 ± 1.9%,78.1 ± 0.9%,100 µg/mL,13 mm,–,50 µg/mL,50 µg/mL,100 µg/mL,50 µg/mL,–,50 µg/mL,50 µg/mL,17 mm,200 µg/mL,400 µg/mL,50 µg/mL,200 µg/mL,16 mm,17 mm,zone of inhibition at 0.4 mg/disc [2]: 20 mm; zone of inhibition at 100 µg/disc [4]: 17 mm; zone of inhibition at 0.4 mg/disc [5]: 24 mm; zone of inhibition at 0.4 mg/disc [6]: 20 mm; zone of inhibition at 0.4 mg/disc [7]: 18 mm; zone of inhibition at 0.4 mg/disc [8]: 20 mm; zone of inhibition at 100 µg/disc [9]: 21 mm; zone of inhibition at 100 µg/disc [10]: 6 mm; zone of inhibition at 0.4 mg/disc [11]: 29 mm; Average FICI with ceftazidime [17]: 0.24; The lowest FICI with ceftazidime [17]: 0.21; zone of inhibition at 100 µg/disc [18]: 15 mm
OB(O)c1ccc(C(F)(F)F)cc1B(O)O [3e],98.8 ± 25.6%,92.9 ± 2.7%,64.4 ± 0.4%,12.5 µg/mL,22 mm,17 mm,6.25 µg/mL,6.25 µg/mL,12.5 µg/mL,50 µg/mL,17 mm,3.12 µg/mL,200 µg/mL,21 mm,400 µg/mL,200 µg/mL,100 µg/mL,200 µg/mL,15 mm,17 mm,zone of inhibition at 0.4 mg/disc [2]: 30 mm; MFC [5]: 400 µg/mL; MFC [6]: 400 µg/mL; zone of inhibition at 0.4 mg/disc [7]: 28 mm; zone of inhibition at 0.4 mg/disc [8]: 23 mm; zone of inhibition at 300 µg/disc [10]: 6 mm; MFC [11]: 400 µg/mL; zone of inhibition at 0.4 mg/disc [11]: 40 mm; zone of inhibition at 0.4 mg/disc [14]: 14 mm; zone of inhibition at 0.4 mg/disc [16]: 13 mm; zone of inhibition at 300 µg/disc [18]: 14 mm
OB(O)c1ccc(F)cc1B(O)O [3c],97.1 ± 6.9%,106 ± 4.5%,82.3 ± 12.9%,100 µg/mL,18 mm,20 mm,100 µg/mL,50 µg/mL,50 µg/mL,100 µg/mL,20 mm,> 400 µg/mL,100 µg/mL,24 mm,400 µg/mL,400 µg/mL,200 µg/mL,400 µg/mL,11 mm,13 mm,zone of inhibition at 300 µg/disc [10]: 12 mm; zone of inhibition at 0.4 mg/disc [16]: 12 mm; zone of inhibition at 300 µg/disc [18]: 16 mm
OB(O)c1cc(C(F)(F)F)cc(B(O)O)c1F [2e],96.6 ± 6.4%,84.4 ± 4.8%,63.1 ± 1.4%,400 µg/mL,20 mm,16 mm,400 µg/mL,400 µg/mL,> 400 µg/mL,> 400 µg/mL,19 mm,> 400 µg/mL,0.78 µg/mL,35 mm,12.5 µg/mL,50 µg/mL,6.25 µg/mL,100 µg/mL,25 mm,29 mm,zone of inhibition at 300 µg/disc [10]: 6 mm; zone of inhibition at 0.4 mg/disc [11]: 14 mm; zone of inhibition at 0.4 mg/disc [14]: 21 mm; zone of inhibition at 0.4 mg/disc [16]: 18 mm; zone of inhibition at 300 µg/disc [18]: 16 mm
OB(O)c1cc(Br)c(B(O)O)cc1Br [1i],122%,114 ± 4.8%,101.4 ± 0.9%,50 µg/mL,18 mm,–,12.5 µg/mL,25 µg/mL,50 µg/mL,50 µg/mL,–,25 µg/mL,50 µg/mL,21 mm,100 µg/mL,200 µg/mL,25 µg/mL,200 µg/mL,11 mm,14 mm,zone of inhibition at 0.4 mg/disc [2]: 24 mm; zone of inhibition at 100 µg/disc [4]: 16 mm; zone of inhibition at 0.4 mg/disc [5]: 31 mm; zone of inhibition at 0.4 mg/disc [6]: 29 mm; zone of inhibition at 0.4 mg/disc [7]: 25 mm; zone of inhibition at 0.4 mg/disc [8]: 24 mm; zone of inhibition at 100 µg/disc [9]: 16 mm; zone of inhibition at 100 µg/disc [10]: 6 mm; zone of inhibition at 0.4 mg/disc [11]: 34 mm; zone of inhibition at 0.4 mg/disc [14]: 14 mm; zone of inhibition at 0.4 mg/disc [16]: 11 mm; zone of inhibition at 100 µg/disc [18]: 14 mm
